Measured values as given in PMC8877822, “Interrogation of the Structure–Activity Relationship of a Lipophilic Nitroaromatic Prodrug Series Designed for Cancer Gene Therapy Applications” (Pharmaceuticals, 2022).

Assays:
[1] = test system: mixed H1299 xenograft containing 28% NfsA_Ec cells and 72% WT cells; experiment: Tumor growth delay assay, mixed H1299 xenograft; format: in vivo, mice; conditions: single i.p. dose: PR-104 388 µmol/kg; 1-P 1330 µmol/kg; 2-P 750 µmol/kg; 6-P 1330 µmol/kg
Method: These ratios were broadly similar to those observed in HCT116 cells (Figure 2). A mixed H1299 xenograft model containing a minority percentage (28 ± 3.3%) of NfsA_Ec-expressing cells was used in order to rank the efficacy of the prodrugs in vivo. A model such as this necessitates the presence of a robust bystander effect to achieve a tumor growth delay. Tumor-bearing mice were administered a single intraperitoneal dose of prodrugs 1-P, 2-P, and 6-P at the H1299 tumor-bearing MTD. PR-104 was administered at 388 µmol/kg, the human equivalent dose (HED) in mice that provides a plasma AUCfree of PR-104A (38 µM-h) that equates to the human Q3W MTD of 1100 mg/m^2 [22].
An estimated starting dose was determined from related compounds. Animals were promptly euthanized if body weight loss exceeded 20% or if there were clinical signs of severe morbidity. The MTD was defined as the highest dose, at which all animals survived (death rate < 1/6) with no unacceptable morbidity, and where the next dose increment had caused at least one death. Tumors were inoculated onto the flanks of NIH-III nude mice by subcutaneous injection of 10^7 H1299 cells. Tumor-bearing mice were randomized to treatment groups (n = 5 mice per group) when tumors reached treatment size (300–350 mm^3) and injected with a single intraperitoneal dose of pre-prodrug. Tumor size and body weights were measured regularly. Tumor volume was calculated as π(Lxw^2)/6, where L is the major axis and w is the perpendicular minor axis. Animals were euthanized when the tumor volume had increased fourfold relative to pre-treatment volume (RTV4, survival endpoint) or if body weight loss exceeded 20% of the pre-treatment value. Kaplan–Meier plots were constructed, and median time to endpoint was calculated. Treatment efficacy was assessed by comparing the median survival time with untreated animals using the Log-rank test p-test (Sigmaplot version 11.0).
Figure 5 In vivo efficacy of the three lead pre-prodrug compounds in a mixed H1299 xenograft containing 28% NfsA_Ec cells and 72% WT cells. (A) Tumor growth and (B) survival analysis of mice bearing 250 mm^3 H1299 tumors treated with a single intraperitoneal dose of prodrug on day 0. N = 5 animals per group. Control = PBS, PR-104 = 388 µmol/kg; 1-P = 1330 μmol/kg; 2-P = 750 μmol/kg; and 6-P = 1330 μmol/kg. Survival endpoint was 4× start volume (RTV4).

[2] = cited from earlier work
SiHa xenografts = experiment: Tumor excision assay, clonogenic cell kill of SiHa xenografts; format: in vivo, mice; conditions: 18 h after treatment, PR-104 380 µmol/kg i.p., 6-P 1330 µmol/kg i.p.
Method: The sensitivity of four cancer cell lines to prodrug 6 was determined under aerobic or anoxic conditions using an anti-proliferative IC50 assay. […] We also evaluated the hypoxic activity of 6-P versus PR-104 in vivo using a SiHa xenograft model (Figure 6B).
When tumors reached treatment size (>400 mm^3), mice were treated with drug by a single intraperitoneal injection of pre-prodrug or vehicle. Mice treated with ionizing radiation were exposed to 10 Gray prior to drug treatment, using a cobalt-60 source from an Eldorado G unit. Animals were euthanized 18 h after drug treatment, and tumors were excised and homogenized using sterile scissors until a fine mince was obtained. Following enzymatic dissociation (2.5 mg/mL pronase, 1 mg/mL collagenase, and 0.2 mg/mL DNAase in αMEM + 10% FBS + 1% P/S, 1 mL per 50 mg), cells were plated at concentrations of 10^2–10^5 cells per 60 mm dish and grown for 10 days before colonies were stained with methylene blue (2 g/L in 50% aqueous alcohol). Colonies containing >50 cells were counted as clonogenic survivors. From these values, plating efficiency (colonies/cells plated), number of clonogens per gram of tumor tissue (plating efficiency × total cells), and log cell kill relative to vehicle treated controls (log clonogens per gram) were calculated. Statistical analysis was undertaken using Holm–Sidak’s one-way ANOVA (Sigmaplot version 11.0).
(A) In vitro anti-proliferative activity of 6 in various cancer cell lines under aerobic and anoxic conditions. IC50 values were determined as the concentration of drug required to inhibit cell growth by 50% of untreated controls following 4 h drug exposure and five days regrowth (mean ±SEM of three or more independent determinations). (B) Clonogenic cell kill of SiHa xenografts 18 h after treatment with hypoxia activated prodrugs PR-104 (380 µmol/kg, i.p.) or 6-P (1330 µmol/kg, i.p.) with or without 10 Gy radiation.

[3] = target: T1, purified His6-tagged NfsA_Ec (Escherichia coli, UniProt P17117); experiment: Steady-state kinetics of reduction by purified NfsA_Ec; format: biochemical, E. coli; conditions: apparent, measured at 250 µM NADPH
T1 construct: His6; made in house
T1 sequence (P17117 1-240): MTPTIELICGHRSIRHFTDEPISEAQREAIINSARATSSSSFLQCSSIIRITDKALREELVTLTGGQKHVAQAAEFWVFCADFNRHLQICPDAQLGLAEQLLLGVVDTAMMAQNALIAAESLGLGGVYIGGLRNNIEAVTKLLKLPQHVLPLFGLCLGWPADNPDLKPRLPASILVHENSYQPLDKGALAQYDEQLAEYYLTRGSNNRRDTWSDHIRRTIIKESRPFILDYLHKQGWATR
Description: (§1) We next sought to characterize the NfsA_Ec-mediated conversion of lead prodrug 6 in steady-state kinetics assays using purified His6-tagged NfsA_Ec. […] We therefore conducted a preliminary assessment of whether alternative bacterial NTR enzymes might hold promise for further GDEPT improvements.
Supplementary Table S3. Steady-state kinetic parameters* for reduction of compound 6 and PR-104A by NfsA_Ec.
Compound Km (µM) kcat (s-1) kcat/Km (mM-1 s-1)
* Apparent kinetic parameters, measured at 250 µM NADPH
# As previously reported by
NfsA_Ec was purified as a His6-tagged recombinant protein as previously described. Kinetics assays were performed in 60 µl in UVettes (Eppendorf), using the 2 mm light path length. Reactions contained 10 mM Tris-Cl (pH 7.0), 4% DMSO, 0.25 mM NADPH and varying concentrations of PR - 104A or compound 6. Reactions were initiated by addition of 6 µl enzyme and changes in absorbance were measured for 20 s (during linearity). For calculation of Km and kcat, substrate concentrations were varied from ~0.2 x Km to 5 x Km. Molar extinction coefficients of 4,800 or 6,000 M-1 cm-1 were used for compound 6 and PR-104A, respectively. Non-linear regression analysis and Michaelis-Menten curve fitting was performed using Sigmaplot 10.0 (Systat Software Inc.).

[4] = test system: H1299 cells expressing E. coli NfsA; experiment: Anti-proliferative IC50 assay, H1299 cells expressing E. coli NfsA; format: cell-based
Method: (§2) The anti-proliferative IC50 was determined as the concentration of prodrug required for 50% inhibition of cell growth, following drug exposure for four hours, then five days regrowth in the absence of drug. Assays were performed under oxic or anoxic conditions as described previously, the latter by using a 5% H2/palladium catalyst scrubbed Bactron anaerobic chamber (Sheldon Manufacturing, Cornelius, OR, USA) to achieve severe anoxia (<10 ppm O2 gas phase) during prodrug exposure.
(§3) Supplementary Table S2. In vitro anti-proliferative activity of the three lead prodrug compounds in H1299 cells expressing E. coli NfsA. IC50 values were determined as the concentration of drug required to inhibit cell growth by 50% of untreated controls following 4 hour drug exposure, with washing and regrowth for five days.
(§4) Compound WT NfsA_Ec Ratio

H1299 WT cells = experiment: Anti-proliferative IC50 assay, H1299 WT cells; format: cell-based; conditions: Homo sapiens, NCI-H1299, 4 hour drug exposure, regrowth for five days
Method: as §2, §3, §4

[5] = test system: 47 different NTR candidates; experiment: GFP-SOS (DNA damage) response in E. coli SOS-R4 reporter strains expressing nitroreductase candidates; format: cell-based; conditions: 20 µM, six-hour exposure, library of E. coli reporter cells
Description: as §1
Supplementary Figure S2. Identification of alternative nitroreductases able to activate compound 6. Bar graph displaying the fold-induction of GFP in the DNA-damage responsive E. coli reporter strain SOS-R4, following six-hour exposure to 20 µM of compound 6, compared with unchallenged replicates. Individual strains expressed nitroreductase candidates derived from different bacteria, identified by a two-letter suffix as explained in the Materials and Methods. The background SOS response induced by compound 6 in an empty plasmid control strain is indicated by the dashed line. […]
The GFP-SOS response was determined in SOS-R4 [16] by inoculating 200 μl aliquots of LBASG (lysogeny broth supplemented with 100 μgml-1 ampicillin, 50 μgml-1 spectinomycin and 0.2% glucose (w/v)) with selected SOS-R4 nitroreductase-over-expressing strains and incubating overnight at 30 °C, 200 rpm. […] Control and challenge plates were incubated at 30 °C, 200 rpm for 6 h, at which point OD600 and GFP fluorescence (excitation 490 nm/ emission 503 nm) were measured on an Enspire™ 2300 Multilabel Reader (Perkin Elmer, Waltham, MA). […]

100% HCT116 AKR1C3 MCLs = experiment: 3D multicellular layer (MCL) assay, 100% HCT116 AKR1C3; format: cell-based, human; conditions: 10 µM prodrug, five hours
Method: Similar to the 3D NfsA_Ec screen, increased lipophilicity also tracked with increased LCK in 100% AKR1C3-expressing MCLs (R = 0.78, R^2 = 0.61). […] These three lead compounds were taken forward into in vivo studies.
Multicellular layers (MCLs) were grown, and bystander effect assays were performed as previously reported.
Figure 4 Lipophilic structure–activity relationship for AKR1C3 in three dimensions. (A) Plating efficiency in 100% HCT116 WT and 100% HCT116 AKR1C3 MCLs exposed to 10 µM prodrug for five hours before dissociation and plating to determine clonogenic survival. (B) Correlation between Log cell kill and LogD7.4. R = 0.78, R^2 = 0.61. Log cell kill = Log CS (control)–Log CS (treated), where CS is the number of clonogenic survivors per MCL.

[6] = LogD7.4 by low-volume octanol/PBS shake-flask method; format: physicochemical; conditions: n-octanol/PBS; octanol-water partition coefficient, shake-flask method at pH 7.4
Method: Distribution ratios (LogD7.4) were determined by a low-volume octanol/PBS shake-flask method. Briefly, saturated solutions of octanol and PBS were prepared by mixing equal volumes of n-octanol and PBS (pH 7.4) before being left for three days. The octanol and PBS phases were then carefully separated and left to stand for at least 24 h. Stock solutions (0.1–0.5 mM) of each compound were prepared in octanol saturated with PBS. The stock solutions were diluted with octanol saturated with PBS containing and inter-assay control (acridone) to a final compound concentration of 50 μM. Aliquots (450 μL) were then taken in triplicate, and 450 μL of PBS saturated with octanol was added into amber tubes. The tubes were then sealed in parafilm and rotated for 90 min at 30 rpm to equilibrate. After centrifugation (15,000× g, 5 min, 20°C) the octanol and PBS phases were separated into different tubes and the octanol phase diluted with methanol (1:5 v/v). Both phases were analyzed by HPLC (diode-array detector at 364 ± 10 nm) by injecting 50 μL of the PBS phase and 15 μL of the diluted octanol phase. The results were then expressed as the log ratio of the peak areas obtained from the octanol and PBS phases corrected for dilution and injection volume.

SMILES: CS(=O)(=O)OCCN(CCBr)c1c(C(=O)NCCOP(=O)(O)O)cc([N+](=O)[O-])cc1[N+](=O)[O-] [PR-104, 2-[(2-bromoethyl)-2,4-dinitro-6-[[[2-(phosphonooxy)ethyl]amino]carbonyl]anilino]ethyl methanesulfonate, reference compound]
- Tumor growth delay (median time to RTV4) compared to untreated controls [1]: 33%
- Human Q3W MTD [2]: 1100 mg/m^2
- Log cell kill, in combination with radiotherapy (SiHa xenografts; 10 Gy radiation): 3.72
- Log cell kill, single agent (SiHa xenografts): 1.38

SMILES: CCS(=O)(=O)c1cc([N+](=O)[O-])c(C(=O)N(C)CCO)cc1N(CCBr)CCBr [Compound 6, 5-(Bis(2-bromoethyl)amino)-N-(2-hydroxyethyl)-N-methyl-4-(ethylsulfonyl)-2-nitrobenzamide]
- kcat [3]: 5.5 ± 0.3 s⁻¹
- IC50 ([4]; Escherichia coli, NCI-H1299, H1299 NfsA_Ec, 4 hour drug exposure, regrowth for five days): 0.47 ± 0.1 µM
- WT:NfsA_Ec IC50 ratio ([4]; H1299 WT vs H1299 NfsA_Ec): 472 fold
- IC50 (H1299 WT cells): 222 ± 39 µM
- Activation of the SOS (DNA damage repair) response [5]: broadly activated by members of both the NfsA and NfsB nitroreductase families
- Log cell kill (LCK) (100% HCT116 AKR1C3 MCLs): ≤ 0.11
- logD at 90 min [6]: 1.6
